{"source": "patent US11998562B2", "about": "(priority 2021, dated 2024)", "origin": "cited, not measured here", "key": {"[1]": {"test_system": "SARS-CoV", "settings": "HAE cells; read-out: IC50, inhibition of SARS-CoV replication"}, "[2]": {"settings": "oral delivery"}}, "note": "“Also recorded” adds a separate entry of the source."}
{"smiles": "CCC(CC)COC(=O)[C@H](C)N[P@](=O)(OC[C@H]1O[C@@](C#N)(c2ccc3c(N)ncnn23)[C@H](O)[C@@H]1O)Oc1ccccc1", "note": "[Remdesivir, 2-Ethylbutyl (2S)-2-{[(S)-{[(2R,3S,4R,5R)-5-(4-aminopyrrolo[2,1-f][1,2,4]triazin-7-yl)-5-cyano-3,4-dihydroxytetrahydrofuran-2-yl]methoxy}(phenoxy)phosphoryl]amino}propanoate]", "values": [{"measurement": "IC50", "setting": "[1]", "value": 69, "unit": "nM"}, {"measurement": "first-pass clearance", "setting": "[2]", "value": "complete"}, {"measurement": "solubility in water", "value": "practically insoluble; also recorded: poorly water soluble"}]}
